Measurements as given in patent publication US5034311A, “Photographic elements containing release compounds I” (Eastman Kodak Company, priority 1990, dated 1991).

Assay: Rate of tetrazole inhibitor release from timing group compounds in micellar solution (HPLC of free inhibitor and residual timing group compound)
Format: physicochemical
Conditions: inhibitor release, pH 13.5, (+10%)
Experimental: Rates of tetrazole release were measured for several timing group compounds which are representative of fragments that are generated by reaction of a coupler of this invention with oxidized developer during photographic processing. These solution measurements are a useful indication of photographic performance. Lower values of inhibitor release half-lives in solution correlate with greater development inhibition effects in film.
For a given measurement, 12.5 μmol of the timing group compound was dissolved in 3.2 mL of reduced Triton X-100 surfactant plus one drop glacial acetic acid plus approximately 5 mL methylene chloride (to facilitate dissolution of the timing group compound in surfactant). After methylene chloride was evaporated under partial vacuum, water (approximately 15 mL) was added and the mixture was vigorously agitated with a vortex mixer to create micelles. This miscellar solution was then diluted to 25 mL with water and mixed again. Inhibitor release kinetics were initiated by mixing 2 mL of the above micellar solution with an equal volume of an aqueous potassium hydroxide solution (0.75 mol KOH/L), producing a reaction mixture with a pH of about 13.5. At intervals, portions of the reaction mixture were quenched by the addition of 1 mL 30% aqueous acetic acid. The quenched mixture was then analyzed by high performance liquid chromatography to determine the concentrations of free inhibitor and residual timing group compound. First-order reaction rate constants were calculated from these concentration versus time data, and the reaction half-life, t1/2, was calculated with the expression t1/2 =0.693/k, where k is the observed rate constant. […] In the following table -INH signifies the inhibitor of the structure

| SMILES | Half-Life at pH 13.5 |
| --- | --- |
| CCCCCCCOc1ccc(-c2nnn(C3CCCc4cc(O)ccc43)n2)cc1 (stereo not drawn) | 15 sec |
| CCCCCCCOc1ccc(-c2nnn(C3c4ccc(O)cc4CCC3(C)C)n2)cc1 (stereo not drawn) | 100 sec |
| CCCCCCCOc1ccc(-c2nnn(C3CCCCc4cc(O)ccc43)n2)cc1 (stereo not drawn) | 250 sec |
| CCCCCCCOc1ccc(-c2nnn(C3CCOc4cc(O)ccc43)n2)cc1 (stereo not drawn) | 9 sec |
| CCCCCCCOc1ccc(-c2nnn(C3CCc4cc(O)ccc43)n2)cc1 (stereo not drawn) | 30 sec |
| CCCCCCCOc1ccc(-c2nnn(Cc3ccc(O)cc3)n2)cc1 [reference compound] | 29,000 sec |
